Laboratory results taken from patent US20120196828A1, “SENSITIZATION OF CANCER CELLS TO TREATMENT” (priority 2011, published 2012).
“And” between values parts separate entries of the source, which are not always exact repeats. Identical values can stand only once.

How the values were obtained:
[1] = system: BxPC-3 Human Pancreas Tumor Xenograft; experiment: BxPC-3 human pancreas tumor xenograft model: tumor weight and tumor growth inhibition; type: in vivo, mouse; details: for Day 26 Tumor Weight: mean ± Std Err, treatment administered until Day 26
Procedure: Compounds tested in the experiment were as follows. […] A concentration of 4.8 mg/ml was formulated to deliver a 24 mg/kg dose at a 5 ml/kg dose volume when administered subcutaneously. […] Nab-paclitaxel was manufactured by Abraxis BioScience LLC (Bridgewater, N.J.) and diluted in a 0.9% NaCl solution to a concentration of 1.5 mg/ml to deliver 15 mg/kg, in a 10 ml/kg dose volume. All standard agent preparations were made fresh prior to their administration.
BxPC-3 cells were obtained and prepared as follows. The BxPC-3 pancreas tumor cell line was received from American Type Culture Collection (ATCC, Manassas, Va.). Cultures were maintained in RPMI 1640 medium (Hyclone, Logan, Utah) supplemented with 5% fetal bovine serum. The cells were housed in a 5% CO2 atmosphere. The cultures were expanded in tissue culture flasks at a 1:3 split ratio until a sufficient amount of cells were harvested.
(§1) All experiments were conducted on female athymic nude mice (Hsd:Athymic Nude-Foxn1nu) supplied by Harlan (Indianapolis, Ind.). Mice were received at four weeks of age, 12-15 grams in weight, and were acclimated for seven days prior to handling. The mice were housed in microisolator cages (Lab Products, Seaford, Del.) and maintained under specific pathogen-free conditions. All procedures were carried out under appropriate institutional guidelines for animal care.
BxPC-3 Human Pancreas Tumor Xenograft Model: Female athymic nude mice per treatment condition were inoculated subcutaneously in the right flank with 0.1 ml of a 50% RPMI 1640/50% Matrigel™ (BD Biosciences, Bedford, Mass.) mixture containing a suspension of BxPC-3 tumor cells (approximately 5×10^6 cells/mouse).
(§2) Seven days following inoculation, tumors were measured using calipers and tumor weight was calculated using the animal study management software, Study Director V.1.7.54 k (Study Log). See Britten C D, et al. Enhanced antitumor activity of 6-hydroxymethylacylfulvene in combination with irinotecan and 5-fluorouracil in the HT29 human colon tumor xenograft model. Cancer Res 59:1049-1053, 1999. […] Body weights were recorded when the mice were randomized and were taken twice weekly thereafter in conjunction with tumor measurements, on each of Days 1, 4, 8, 11, 15, 18, 22, 26, 30, 33, and 36.
(§3) The study was terminated when the vehicle control reached an endpoint of 1500 mg, on Day 36.
Mean tumor growth inhibition (TGI) was calculated utilizing Formula A below (deaths were not included in the TGI calculations).
All statistical analyses in the xenograft study were performed with GraphPad Prism® v4 software.

[2] = Body weight, deaths and clinical observations in the BxPC-3 xenograft study; details: for Starting Weight: baseline body weight, female athymic nude mice, BxPC-3 xenograft study
Procedure: as §1, §2, §3

anti-thrombin III = anti-thrombin III (Homo sapiens, UniProt P01008); details: cited from earlier work
[3] = ANOVA with Tukey's Multiple Comparison Test
[4] = Day 26, group mean, dosing per Table 1
[5] = total deaths on or before Day 26, N = 10 per group

Chain of anti-thrombin III (P01008 33-464, species assumed): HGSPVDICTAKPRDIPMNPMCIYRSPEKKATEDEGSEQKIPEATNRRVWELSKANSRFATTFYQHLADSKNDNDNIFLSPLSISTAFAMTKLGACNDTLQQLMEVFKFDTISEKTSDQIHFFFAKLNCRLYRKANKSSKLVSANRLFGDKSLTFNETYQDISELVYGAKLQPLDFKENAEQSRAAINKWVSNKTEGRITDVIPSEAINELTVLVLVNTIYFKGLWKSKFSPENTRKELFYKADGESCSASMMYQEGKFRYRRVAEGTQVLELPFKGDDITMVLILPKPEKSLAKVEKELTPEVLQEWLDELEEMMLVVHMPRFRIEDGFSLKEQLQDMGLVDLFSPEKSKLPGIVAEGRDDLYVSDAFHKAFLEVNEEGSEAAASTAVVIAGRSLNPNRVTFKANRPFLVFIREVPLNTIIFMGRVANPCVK

With `Nc1ccn([C@@H]2O[C@H](CO)[C@@H](O)C2(F)F)c(=O)n1` [Gemcitabine] the “Difference in tumor weight on Day 26 compared to vehicle control” value [1, 3] was “No significant difference”, the “Difference in tumor weight on Day 36 compared to vehicle control” value [1, 3] was “No significant difference” and the “Mean tumor weight, Day 1” value ([1]; Day 1 (randomization), group mean, dosing per Table 1) was 124.3 mg. For the same molecule, the “Median tumor weight, Day 1” value ([1]; Day 1 (randomization), group median, dosing per Table 1) was 121.1 mg, the “Tumor weight, individual mouse, Day 1” value ([1]; Day 1 (randomization), individual mouse, dosing per Table 1 (ODSH 24, oxaliplatin 10, gemcitabine 80, nab-paclitaxel 15 mg/kg)) was 132 mg and 139 mg and 126 mg and 104 mg and 107 mg and 111 mg and 116 mg and 166 mg and 146 mg and 96 mg and the “Mean tumor weight, Day 4” value ([1]; Day 4, group mean, dosing per Table 1) was 152.5 mg. The “Median tumor weight, Day 4” value ([1]; Day 4, group median, dosing per Table 1) was 140.2 mg, the “Tumor weight, individual mouse, Day 4” value ([1]; Day 4, individual mouse, dosing per Table 1) was 189 mg and 214 mg and 126 mg and 122 mg and 131 mg and 133 mg and 146 mg and 176 mg and 155 mg and 135 mg and the “Mean tumor weight, Day 8” value ([1]; Day 8, group mean, dosing per Table 1) was 162.2 mg. For the same molecule, the “Median tumor weight, Day 8” value ([1]; Day 8, group median, dosing per Table 1) was 147.4 mg, the “Tumor weight, individual mouse, Day 8” value ([1]; Day 8, individual mouse, dosing per Table 1) was 193 mg and 282 mg and 129 mg and 130 mg and 125 mg and 161 mg and 175 mg and 180 mg and 134 mg and the “Mean tumor weight, Day 11” value ([1]; Day 11, group mean, dosing per Table 1) was 198.2 mg. The “Median tumor weight, Day 11” value ([1]; Day 11, group median, dosing per Table 1) was 191.0 mg, the “Tumor weight, individual mouse, Day 11” value ([1]; Day 11, individual mouse, dosing per Table 1) was 235 mg and 328 mg and 146 mg and 145 mg and 119 mg and 150 mg and 202 mg and 242 mg and 234 mg and 180 mg and the “Mean tumor weight, Day 15” value ([1]; Day 15, group mean, dosing per Table 1) was 263.8 mg. For the same molecule, the “Median tumor weight, Day 15” value ([1]; Day 15, group median, dosing per Table 1) was 259.2 mg, the “Tumor weight, individual mouse, Day 15” value ([1]; Day 15, individual mouse, dosing per Table 1) was 319 mg and 375 mg and 211 mg and 218 mg and 181 mg and 228 mg and 245 mg and 288 mg and 300 mg and 274 mg and the “Mean tumor weight, Day 18” value ([1]; Day 18, group mean, dosing per Table 1) was 332.1 mg. The “Median tumor weight, Day 18” value ([1]; Day 18, group median, dosing per Table 1) was 340.1 mg, the “Tumor weight, individual mouse, Day 18” value ([1]; Day 18, individual mouse, dosing per Table 1) was 413 mg and 379 mg and 258 mg and 267 mg and 224 mg and 269 mg and 441 mg and 376 mg and 389 mg and 304 mg and the “Mean tumor weight, Day 22” value ([1]; Day 22, group mean, dosing per Table 1) was 459.4 mg. For the same molecule, the “Median tumor weight, Day 22” value ([1]; Day 22, group median, dosing per Table 1) was 451.9 mg, the “Tumor weight, individual mouse, Day 22” value ([1]; Day 22, individual mouse, dosing per Table 1) was 621 mg and 514 mg and 372 mg and 400 mg and 350 mg and 332 mg and 592 mg and 509 mg and 500 mg and 404 mg and the “Mean tumor weight, Day 26” value [1, 4] was 594.7 mg. The “Median tumor weight, Day 26” value ([1]; Day 26, group median, dosing per Table 1) was 605.8 mg, the “Tumor weight, individual mouse, Day 26” value ([1]; Day 26, individual mouse, dosing per Table 1) was 797 mg and 739 mg and 468 mg and 534 mg and 431 mg and 389 mg and 730 mg and 628 mg and 647 mg and 583 mg and the “Day 26 Tumor Weight” value ([1]; Day 26) was 594.7 ± 43.8 mg. The “Mean tumor weight, Day 30” value ([1]; Day 30, group mean of surviving mice, dosing per Table 1) was 874.3 mg, the “Median tumor weight, Day 30” value ([1]; Day 30, group median, dosing per Table 1) was 858.0 mg and the “Tumor weight, individual mouse, Day 30” value ([1]; Day 30, individual mouse, dosing per Table 1) was 1,121 mg and 1,008 mg and 674 mg and 860 mg and 667 mg and 589 mg and 1,150 mg and 856 mg and 992 mg and 826 mg. The “Mean tumor weight, Day 33” value ([1]; Day 33, group mean of surviving mice, dosing per Table 1) was 1,044.2 mg, the “Median tumor weight, Day 33” value ([1]; Day 33, group median, dosing per Table 1) was 1,033.3 mg and the “Tumor weight, individual mouse, Day 33” value ([1]; Day 33, individual mouse, dosing per Table 1) was 1,367 mg and 1,132 mg and 878 mg and 1,036 mg and 936 mg and 624 mg and 1,275 mg and 1,030 mg and 1,158 mg and 1,008 mg. For the same molecule, the “Day 36 Tumor Weight” value ([1]; Day 36, treatment administered until Day 35) was 1288.8 ± 74.3 mg, the “Median tumor weight, Day 36” value ([1]; Day 36, group median, dosing per Table 1) was 1,306.7 mg and the “Tumor weight, individual mouse, Day 36” value ([1]; Day 36, individual mouse, dosing per Table 1) was 1,573 mg and 1,368 mg and 963 mg and 1,347 mg and 1,106 mg and 923 mg and 1,596 mg and 1,482 mg and 1,267 mg and 1,265 mg. For the same molecule, the “Day 36 % TGI” value ([1]; Day 36 vs Day 1, relative to vehicle control (Group 1), deaths not included) was 16.8%, the “Day 1 Average Weight” value [2] was 22.48 g and the “Day 4 Average Weight” value ([2]; Day 4) was 21.76 g. The “Day 8 Average Weight” value ([2]; Day 8) was 20.91 g, the “Day 11 Average Weight” value [2] was 20.52 g and the “Day 15 Average Weight” value [2] was 21.70 g. For the same molecule, the “Day 18 Average Weight” value ([2]; Day 18) was 23.15 g, the “Day 22 % Weight Loss or Gain” value ([2]; Day 22, vs starting weight) was 8.59% and the “Day 26 Average Weight” value ([2]; Table 13 Day 26) was 24.21 g. For the same molecule, the “Day 26 % Weight Loss or Gain” value ([2]; Table 13 Day 26, vs starting weight) was 7.70%, the “Starting Weight” value [2] was 22.48 g and the Maximum weight loss ([2]; body weight of mice) was 8.7%. For the same molecule, the “Day 4 % Weight Loss or Gain” value ([2]; mouse, in vivo) was −3.20%, the “Day 8 % Weight Loss or Gain” value ([2]; mouse, in vivo) was −6.98% and the “Day 11 % Weight Loss or Gain” value ([2]; mouse, in vivo) was −8.72%. For the same molecule, the “Day 15 % Weight Loss or Gain” value ([2]; mouse, in vivo) was −3.47%, the “Day 18 % Weight Loss or Gain” value ([2]; mouse, in vivo) was 2.98% and the “Day 22 % Weight Loss or Gain” value ([2]; mouse, in vivo) was 7.74%. The “Day 22 Average Weight” value ([2]; mouse, in vivo) was 24.22 g, the “Day 26 % Weight Loss or Gain” value ([2]; mouse, in vivo) was 7.96% and the “Day 26 Average Weight” value ([2]; mouse, in vivo) was 24.27 g. The “Day 30 % Weight Loss or Gain” value ([2]; mouse, in vivo) was 7.61%, the “Day by which the mice recovered their weight” value ([2]; mouse, in vivo) was at most 18 days and the “Day on which maximum weight loss was reached” value ([2]; mouse, in vivo) was 11 days. For the same molecule, the Deaths [2, 5] was 0 and the Deaths ([2]; total deaths on or before Day 36, n = 10 per group) was 0.

In the case of `O=C1[O][Pt]2([NH][C@@H]3CCCC[C@H]3[NH]2)[O]C1=O` [Oxaliplatin], the “Difference in tumor weight on Day 26 compared to vehicle control” value [1, 3] is reported as “No significant difference”, the “Mean tumor weight, Day 26” value [1, 4] is reported as 635.0 mg and the “Day 26 Tumor Weight” value ([1]; Day 26) is reported as 635.0 ± 52.3 mg. The “Day 26 % TGI” value ([1]; Day 26 vs Day 1, relative to vehicle control (Group 1), deaths not included) was 8.0% and 8.0 (10/10) %, the “Day 1 Average Weight” value [2] was 20.82 g and the “Day 4 % Weight Loss or Gain” value ([2]; Day 4, vs starting weight) was −2.02%. The “Day 8 % Weight Loss or Gain” value ([2]; Day 8, vs starting weight) was −0.82%, the “Day 11 Average Weight” value [2] was 20.12 g and the “Day 15 Average Weight” value [2] was 20.81 g. For the same molecule, the “Day 15 % Weight Loss or Gain” value ([2]; Day 15, vs starting weight) was −0.05%, the “Day 18 % Weight Loss or Gain” value ([2]; Day 18, vs starting weight) was −1.78% and the “Starting Weight” value [2] was 20.82 g. For the same molecule, the “Day bruising of the tails was first observed” value ([2]; mouse, in vivo) was 11 days, the “Mice demonstrating bruising on the tails or abdomen (site of injection)” value ([2]; of ten mice) was “One mouse” and the Deaths [2, 5] was 0.

In the case of heparin, the Kd (anti-thrombin III) is listed as 1560 nM and the “Kd for anti-thrombin III” value (anti-thrombin III) is listed as 22 µg/mL.
